Source: patent publication US10947284B2, “Fusion molecules” (Pieris Pharmaceuticals GMBH, priority 2015, dated 2021)
Starred links: 1 amine or outer side, 2 acyl side, 3 side chain; linkers in the order of their positions; H or OH if unused. Non-standard residues stand in square brackets, D forms with d. Residues, ends and D or L forms follow the SMILES beside them. *: point of attachment. X1 = O=C([C@@H]1CCNc2c(N[*:1])cc3cc(O)c(O)cc3[n+]21)[*:2]; dOrn(N5-OH,N5-CHO) = N[C@H](CCCN(O)C=O)C(=O)O; d(aThr) = C[C@@H](O)[C@@H](N)C(=O)O; Suc = O=C(CCC(=O)[*:2])[*:1]; X2 = O=C1[C@@H](N*)CCCN1[O-]; Orn = NCCC[C@H](N)C(=O)O

Molecular target: lipocalin negative control SEQ ID NO: 64 (Homo sapiens, UniProt P80188, C107S/Q48H)
Assay: Surface plasmon resonance (Biacore T200)
Format: binding
Conditions: SPR, analyte at 1200 nM
Procedure: In a Surface Plasmon Resonance (SPR) based assay a Biacore T200 instrument (GE Healthcare) was used to measure the binding affinity of muteins to pyoverdine I succinyl, -succinamide, -α-ketoglutaryl with complexed iron ion or to pyoverdine II succinyl, -succinamide, -α-ketoglutaryl with complexed iron ion or to pyoverdine III succinyl, -succinamide, -α-ketoglutaryl with complexed iron ion. Muteins selected for binding to pyoverdines and negative control (SEQ ID NO: 64) were biotinylated for 2 h at room temperature applying an appropriate excess of EZ-Link NHS-PEG4-Biotin (Thermo, Cat #21329) followed by separation of non-reacted Biotin using a Zebra Spin Desalting Plate (Thermo, Cat #21329) according to the manufactures instructions.
In the SPR affinity assay, biotinylated muteins and negative control were captured on a sensor chip CAP using the Biotin CAPture Kit (GE Healthcare): Sensor Chip CAP is pre-immobilized with an ssDNA oligo. Undiluted Biotin CAPture Reagent (streptavidin conjugated with the complementary ss-DNA oligo) was applied at a flow rate of 2 μl/min for 300 s. Subsequently, 1 μg/ml to 100 μg/mL of biotinylated muteins or negative control were applied for 300 s at a flow rate of 5 μl/min. The reference channel was loaded with Biotin CAPture Reagent only.
Applying a flow rate of 30 μl/min, a single cycle or multi cycle kinetics approach was used with a sample contact time of 120-180 s and a dissociation time of 900-2400 s. […] After ligand immobilization, for analysis using single cycle kinetics all 4-5 concentrations of Pvd were applied consecutively in ascending order before the dissociation was monitored. For analysis using multi cycle kinetics 4 dilutions of Pvd were applied, each followed a dissociation phase. All measurements were performed at 25° C. […] Data were evaluated with Biacore T200 Evaluation software (V 1.0). Double referencing was used. A 1:1 Binding model was used to fit the raw data.
Subsequently, 5 μg/mL of mutein or the negative control solution in 10 mM acetate pH 4.0 was applied at a flow rate of 10 μl/min until a high immobilization level of approximately 2000 RU was achieved. Residual activated groups were quenched with ethanolamine. The reference channels were treated with EDC/NHS following ethanolamine (blank immobilization).
In the SPR affinity assay, biotinylated muteins and negative control were captured on a sensor chip CAP using the Biotin CAPture Kit (GE Healthcare), wherein the Sensor Chip CAP is pre-immobilized with an ssDNA oligo. Undiluted Biotin CAPture Reagent (streptavidin conjugated with the complementary ss-DNA oligo) was applied at a flow rate of 2 μl/min for 300 s. Subsequently, 20 μg/ml to 100 μg/mL of biotinylated muteins or fusion molecule negative control were applied for 300 s at a flow rate of 5 μl/min. The reference channel was loaded with Biotin CAPture Reagent only. To determine the binding affinity, four dilutions of the respective Pvd were prepared in HBS-EP+ buffer (GE Healthcare) and applied to the chip surface. Applying a flow rate of 30 μl/min, a single cycle kinetics approach was used with a sample contact time of 180 s and a dissociation time of 1800-2400 s. […] After ligand immobilization, the four concentrations of Pvd were applied consecutively in ascending order before the dissociation was monitored. All measurements were performed at 25° C. […] Data were evaluated with Biacore T200 Evaluation software (V 1.0). Double referencing was preformed. A 1:1 binding model was used to fit the raw data.

Sequence of lipocalin negative control SEQ ID NO: 64 (P80188 21-198 Q48H/C107S): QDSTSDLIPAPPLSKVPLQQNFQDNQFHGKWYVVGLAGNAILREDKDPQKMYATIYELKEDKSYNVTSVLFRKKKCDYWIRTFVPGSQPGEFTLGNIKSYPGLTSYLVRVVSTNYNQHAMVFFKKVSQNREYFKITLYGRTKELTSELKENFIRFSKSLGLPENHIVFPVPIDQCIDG

For C[C@@H](O)[C@@H](NC(=O)CNC(=O)[C@H](CCCN)NC(=O)[C@@H](CCCN([O-])C=O)NC(=O)[C@@H](CO)NC(=O)[C@@H]1CCNc2c(NC(=O)CCC(=O)O)cc3cc([O-])c([O-])cc3[n+]21)C(=O)N[C@@H](CO)C(=O)N[C@H]1CCCN([O-])C1=O.[Fe+3] [Pvd II s (+Fe), Pvd type II succinyl] (Suc-[X1][dS][dOrn(N5-OH,N5-CHO)][Orn]G[d(aThr)]S-X2), the binding was “absence of binding”.
In the case of NC(=O)CC[C@H](NC(=O)[C@H](CCCN([O-])C=O)NC(=O)[C@@H]1CCN=C([C@@H](CO)NC(=O)[C@@H]2CCNc3c(NC(=O)CCC(=O)O)cc4cc([O-])c([O-])cc4[n+]32)N1)C(=O)N[C@H](CCC(N)=O)C(=O)N[C@H](CCCN([O-])C=O)C(=O)NCC(=O)O.[Fe+3] [Pvd III s (+Fe), Pvd type III succinyl], the binding was “absence of binding”.
